The source of these data is publication PMC8620494, “Synthesis of Purine-Based Ionic Liquids and Their Applications” (Molecules, 2021).

The procedure of data set [1]: Samples were quantified, as previously described, at 316 nm (see Figure S1). All assays were performed in triplicates. To verify the integrity of the IL, the liquid phase was analyzed by ^1H and ^13C NMR.
Another data set deals with Raphidocelis subcapitata. The conditions noted are these: for Acute hazard category according to European legislation: based on 96 h EC50 in mg∙L^−1; for EC50: 96 h incubation, microalgae yield, 95% confidence limits in parenthesis. The method, then: The microalgae ecotoxicity assays were conducted, as previously described in detail, using the microalgae Raphidocelis subcapitata, i.e., following the guidelines of OECD [38], and adapted to the use of 24-well microplates. […] The microalgae were exposed to a range of concentrations of each salt, and all the assays, including the MBL blank control, were conducted in triplicate. The microplates were incubated for 96 h, under controlled incubation conditions, as used for the inoculum. After that time, the microalgae yield in each treatment was calculated as the difference between the cell densities at the end and beginning of the test.

On data set [2], the source says: Theobromine has relatively strong intermolecular hydrogen bonding between its carbonyl groups and strong π–π stacking interactions. In theophylline, the hydrogen between the two carbonyl groups is replaced by a methyl group, causing the previously mentioned interactions to be weaker. […] Adding alkyl groups to ILs usually lowers their solubility. […] The overall poor solubility of purines is connected to their inter-base hydrogen bonding. The insertion of the methyl groups replaces protons that would otherwise be available to form inter-base hydrogen bonds.
The source holds these as a separate data set.

For data set [3] the following is noted: TGA, nitrogen, 2 K·min^−1, peak of the derivative. The method, then: The melting temperatures (Tm) were measured in a differential scanning calorimetry (DSC), using a Hitachi DSC7000X equipment at atmospheric pressure, with hermetically sealed aluminum crucibles and a constant flow of nitrogen. […] Each sample underwent three cycles of cooling and heating, at 5 K∙min^−1 and 2 K∙min^−1, respectively. The melting point of each compound was taken as the peak temperature. The determined melting points are estimated to have a 1 K uncertainty. […] Each sample was heated in an aluminia pan, under a nitrogen atmosphere, with a heating rate of 2 K·min^−1. The degradation temperature-associated uncertainty is estimated to be 0.01 K. Degradation temperature was taken as the peak temperature of the derivative.

The conditions of data set [4]: for Aqueous solubility enhancement (S/S0) of the salt relative to its free purine: S molar water-solubility of salt at 298 K, S0 of free purine from PubChem; for Molar water-solubility (S): pure water, 72 h, shake-flask; for Molar water-solubility (S) / pH saturated (pH of the saturated IL solution): (298 ± 1) K; for pH saturated (pH of the saturated IL solution): saturated aqueous solution. The method, then: IL solubility studies were performed using the isothermal shake-flask method, as reported in the literature. […] If needed, samples were centrifuged for 2 min at 12,000 rpm. Samples of the liquid phase were collected and diluted in distilled water, followed by the preparation of a calibration curve for each compound of interest. The amount of compound in the liquid phase was quantified using a UV–Vis Synergy HT microplate reader from BioTek (Winooski, VT, USA). […] All assays were performed in triplicate. The pH (±0.02) of the samples was determined by using a Mettler Toledo SevenMultiTMdual pH meter.

The conditions of data set [5]: cited from earlier work.
The mark [6] stands for this setting: IL solution 0.05 mol∙L-1 before addition of ferulic acid.
The mark [7] stands for this setting: IL solution 0.05 mol∙L-1 saturated with ferulic acid.
The mark [8] stands for this setting: IL solution 0.1 mol∙L-1 before addition of ferulic acid.
Where [9] appears, read: IL solution 0.1 mol∙L-1 saturated with ferulic acid.
[10] abbreviates: IL solution 0.25 mol∙L-1 before addition of ferulic acid.
The mark [11] stands for this setting: IL solution 0.25 mol∙L-1 saturated with ferulic acid.
The mark [12] stands for this setting: IL solution 0.5 mol∙L-1 before addition of ferulic acid.
Setting [13] is: IL solution 0.5 mol∙L-1 saturated with ferulic acid.
The mark [14] stands for this setting: IL solution 1.0 mol∙L-1 before addition of ferulic acid.
Setting [15] is: IL solution 1.0 mol∙L-1 saturated with ferulic acid.
The mark [16] stands for this setting: IL solution 1.5 mol∙L-1 before addition of ferulic acid.
Where [17] appears, read: IL solution 1.5 mol∙L-1 saturated with ferulic acid.

Read-outs that look alike come from different tables or passages of the source. A value given as a limit tells only on which side of the number the result lay.

As for `CCCC[N+](CCCC)(CCCC)CCCC.[Cl-]` [[N4444]Cl, tetrabutylammonium chloride, reference compound], the “Initial solution pH” value came out at 5.71 in data set [1] (setting [6]); 6.31 in data set [1] (setting [8]); 5.62 in data set [1] (setting [10]); 4.26 in data set [1] (setting [12]); 4.04 in data set [1] (setting [14]); 4.20 in data set [1] (setting [16]). Moreover, the “Saturated solution pH” value in data set [1] (setting [7]) stood at 3.29; in data set [1] (setting [9]), 2.89; in data set [1] (setting [11]) it was 2.63; in data set [1] (setting [13]) it was 2.36; in data set [1] (setting [15]), 2.10; in data set [1] (setting [17]), 2.26. For the same compound, in the data set on Raphidocelis subcapitata, the “Acute hazard category according to European legislation” value was “acute 2 (acute 2 category (1 < EC50 < 10 mg∙L^−1))”. Moreover, in data set [2] (initial aqueous solution of [N4444]Cl 1.0 mol∙L-1), the pH initial worked out at 4.23.

Regarding `CCCC[N+](CCCC)(CCCC)CCCC.Cn1cnc2c1c(=O)[n-]c(=O)n2C` [[N4444][Theob], Tetrabutylammonium theobrominate], the “Initial solution pH” value was 10.85 in data set [1] (setting [6]), 11.56 in data set [1] (setting [8]), 11.80 in data set [1] (setting [10]) and 11.98 in data set [1] (setting [12]). The “Saturated solution pH” value in data set [1] (setting [7]) is on record as 5.36; in data set [1] (setting [9]) it was 5.54; in data set [1] (setting [11]) it was 8.51; in data set [1] (setting [13]), 9.62. Moreover, the “S/S0 of ferulic acid recalculated with S0 at a similar pH to that of the sample” value in data set [1] (all tested IL concentrations, 303 K) is less than 1. The “Decomposition temperature (Td)” value in data set [3] stood at 457 ± 1 K. The “Aqueous solubility enhancement (S/S0) of the salt relative to its free purine” value in data set [4] is 870 fold. The “Molar water-solubility (S)” value in data set [4] was 1590 ± 70 mM. Also, in data set [4], the “pH saturated (pH of the saturated IL solution)” value stood at 12.76.

As for `CCCC[N+](CCCC)(CCCC)CCCC.Cn1c(=O)c2[n-]cnc2n(C)c1=O` [[N4444][Theop], Tetrabutylammonium theophyllinate], the “Initial solution pH” value in data set [1] (setting [6]) is reported as 8.91; in data set [1] (setting [8]), 10.52; in data set [1] (setting [10]), 10.81; in data set [1] (setting [12]), 10.78; in data set [1] (setting [14]), 11.06; in data set [1] (setting [16]) it was 10.68. For the same compound, the “Saturated solution pH” value in data set [1] (setting [7]) came to 5.30; in data set [1] (setting [9]), 6.44; in data set [1] (setting [11]), 6.56; in data set [1] (setting [13]), 7.65; in data set [1] (setting [15]), 8.63; in data set [1] (setting [17]), 9.95. Also, the “Decomposition temperature (Td)” value in data set [3] stood at 486 ± 1 K. Besides, the “Aqueous solubility enhancement (S/S0) of the salt relative to its free purine” value in data set [4] was 53 fold. Also, in data set [4], the “Molar water-solubility (S)” value was 2200 ± 100 mM. In addition, the “pH saturated (pH of the saturated IL solution)” value in data set [4] was found to be 10.89.

In general, EC50 refers to the midpoint of the concentration-response curve. For the compound `CCCC[N+](CCCC)(CCCC)CCCC.O=c1[n-]c2[nH]c(=O)[nH]c2c(=O)[nH]1` [[N4444][Ur], Tetrabutylammonium urate], the “Decomposition temperature (Td)” value in data set [3] is given as 505 ± 1 K. In addition, in data set [4], the “Molar water-solubility (S)” value was determined as 96 ± 7 mM and the “pH saturated (pH of the saturated IL solution)” value is recorded as 8.31. Moreover, the EC50 with Raphidocelis subcapitata was found to be 2.7 µg/mL.

In the case of `CCCC[N+](CCCC)(CCCC)CCCC.O=c1[nH]c(=O)c2[n-]cnc2[nH]1` [[N4444][Xan], Tetrabutylammonium xanthinate], in data set [3], the “Decomposition temperature (Td)” value is reported as 495 ± 1 K. Also, in data set [4], the “Molar water-solubility (S)” value was 170 ± 10 mM and the “pH saturated (pH of the saturated IL solution)” value amounted to 10.14. Moreover, in the data set with Raphidocelis subcapitata, the EC50 amounted to 0.8 µg/mL and the “Acute hazard category according to European legislation” value is “acute 1 (acute 1 category (EC50 < 1 mg∙L^−1))”.

With `O.O=c1[nH]c2nc([O-])nc([O-])c2[nH]1.[K+].[K+]` [potassium urate], the “Water-solubility of other urate salts” value in data set [5] was 12.06 mM.

Regarding `Cn1c(=O)c2[n-]cnc2n(C)c1=O.[Na+]` [sodium theophyllinate], the “Molar solubility of sodium theophyllinate in pure water (S0)” value in data set [2] stood at 260 ± 10 mM. In data set [2] ([N4444]Cl 1.0 mol∙L-1 solution saturated with sodium theophyllinate), the pH saturated was 10.55.

Take `O=c1[nH]c(=O)c2[nH]c([O-])nc2[nH]1.[Na+]` [sodium urate]: the “Water-solubility of other urate salts” value in data set [5] is 6.76 mM.

Regarding `O=c1[nH]c(=O)c2[nH]c(=O)[nH]c2[nH]1` [uric acid], the “Molar water-solubility of the free purine (S0)” value in data set [5] ((293 ± 1) K, ref PubChem [53]) is 0.357 mM.
